Experimental data taken from patent US20240285552A1 (priority 2020, published 2024).
Structures can show the parent of a compound that is named as a salt. Where two headings read alike, the source gives them in different places.

Experiments:
[1] = tested on: SARS CoV-2 nanoluciferase reporter virus; experiment: microbe, parasite or virus in culture; format: cell-based; conditions: for IC50: read-out: IC50, viral replication, Nanoluciferase Reporter Virus Assay
ACE2 = experiment: Western blotting, ACE2 expression in A549 cells; format: cell-based, human; conditions: 50 μm, 24 hrs and 48 hrs
Experimental: Western blotting. A549 “Lung” cells (RRID:CVCL_COQ5) were harvested in a radioimmuno precipitation assay (RIPA) buffer (Tris 10 mM pH 7.4, containing 140 mM NaCl, 1 mM EDTA, 1 mM NaF, 0.10% SDS, 0.50% sodium deoxycholate 0.1% NP-40, 1% Triton X-100) in the presence of protease inhibitors (Thermo Fisher) at 24 hrs. and 48 hrs. Protein concentration was determined by was determined using bicinchoninic acid with bovine serum albumin as a standard (Thermo Fisher). Equal amounts of protein were loaded and separated by SDS-PAGE using 10% pre-casted gels (Biorad). Proteins were electroblotted onto nitrocellulose membranes (Bio-Rad). The blots were blocked using 5% (w/v) milk in Tris-buffered saline containing 0.5% (v/v) Tween-20. The membranes were then incubated with different antibodies. Antibodies directed against ACE1 (ab28311) and ACE2 (ab108209) were used and the GAPDH antibody was used as loading control for cell lysates. Primary and secondary antibodies were diluted in Tris-buffered saline containing (0.5% v/v) Tween-20 (TBS-T) supplemented with 5% milk. The bands were visualized by incubating the blots with enhanced chemiluminescence reagent (ECL, Biorad) and visualized using chemidoc. Band intensities were quantified by using imagelab software Biorad.

in vitro = conditions: human, Cytotoxicity CC50, A549 cells, 72 hours
[2] = target: T1, recombinant human ACE2 (rhACE2) (Homo sapiens, UniProt Q9BYF1); experiment: ACE2 exopeptidase inhibitor screening assay (fluorogenic substrate), AMB and BHH; format: biochemical; conditions: for inhibition at 0.1 µM / inhibition at 1 µM / inhibition at 10 µM / inhibition at 50 µM / inhibition at 100 µM / inhibition at 250 µM / inhibition at 500 µM: read-out: ACE2 Exopeptidase Activity: Percent Inhibition; for effect on exopeptidase activity of rhACE2: tested 0.1 to 500 μM
T1 construct: purchased BPS Bioscience 79923
Experimental: ACE2 Inhibitor Screening Assay. An ACE2 exopeptidase Inhibitor screening assay kit with the fluorogenic substrate (Catalogue #79923) was purchased from BPS Bioscience (San Diego, CA) and modified to measure the exopeptidase activity of ACE2 in the presence and absence of inhibitors (BPSBioscience, 2022). Following the manufacturer's directions, the fluorescence assay was carried out in a 96-well black flat-bottom plate with a final reaction volume of 50 μL. 50 mM stock solutions of BHH and AMB in 100% DMSO were prepared. Compounds were serially diluted in DMSO as follows: 500, 250, 100, 50, 10, 1, 0.1 μM. All experiments were done in triplicates and repeated twice. A positive control of enzyme treated with vehicle alone (2 percent DMSO) and a blank control with no enzyme were included on each plate.
Each reaction had 24 μL of purified recombinant human ACE2 protein (0.42 ng/L) in ACE2 buffer, 1 μL of the compound at different concentrations, and 25 μL ACE2 fluorogenic substrate. The final volume of the reaction was 50 μL. The reaction mixtures were incubated for 1 hr at room temperature (22° C.) and protected from light. After that, the fluorescence intensities (λExcitation=535 nm, λEmission=595 nm) were measured using a Spectramax iD3 multimode plate reader. The background hydrolysis was subtracted, and the data were fitted to a four-parameter logistic (variable slope) equation using GraphPad prism software 9.1.

T1 sequence (Q9BYF1 18-805): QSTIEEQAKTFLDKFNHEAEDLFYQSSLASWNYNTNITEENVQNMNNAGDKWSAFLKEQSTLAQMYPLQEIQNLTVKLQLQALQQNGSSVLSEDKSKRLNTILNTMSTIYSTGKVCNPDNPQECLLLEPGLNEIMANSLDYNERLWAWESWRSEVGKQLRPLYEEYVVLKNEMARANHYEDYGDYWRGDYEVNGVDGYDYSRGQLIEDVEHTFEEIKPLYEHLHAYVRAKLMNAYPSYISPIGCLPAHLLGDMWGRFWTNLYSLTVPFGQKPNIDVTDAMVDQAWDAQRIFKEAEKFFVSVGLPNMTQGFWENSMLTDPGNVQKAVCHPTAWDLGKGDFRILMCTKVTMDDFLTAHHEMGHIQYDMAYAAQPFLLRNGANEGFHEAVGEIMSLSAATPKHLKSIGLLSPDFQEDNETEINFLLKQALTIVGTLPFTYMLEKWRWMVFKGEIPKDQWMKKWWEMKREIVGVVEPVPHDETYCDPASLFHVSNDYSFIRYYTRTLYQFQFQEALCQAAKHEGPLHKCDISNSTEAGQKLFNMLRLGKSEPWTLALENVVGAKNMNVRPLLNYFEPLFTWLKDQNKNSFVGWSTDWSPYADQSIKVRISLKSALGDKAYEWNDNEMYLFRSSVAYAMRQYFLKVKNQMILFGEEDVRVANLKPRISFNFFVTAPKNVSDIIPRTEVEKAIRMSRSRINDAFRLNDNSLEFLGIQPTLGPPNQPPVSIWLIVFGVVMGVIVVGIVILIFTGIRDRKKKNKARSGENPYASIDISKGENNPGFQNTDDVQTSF

| Compound | ACE2 Exopeptidase Activity: Percent Activity ([2]; 0.1 uM) | inhibition at 0.1 µM ([2]; 0.1 uM) | ACE2 Exopeptidase Activity: Percent Activity ([2]; 1 uM) | inhibition at 1 µM ([2]; 1 uM) | ACE2 Exopeptidase Activity: Percent Activity ([2]; 10 uM) | inhibition at 10 µM ([2]; 10 uM) | ACE2 Exopeptidase Activity: Percent Activity ([2]; 50 uM) | inhibition at 50 µM ([2]; 50 uM) | ACE2 Exopeptidase Activity: Percent Activity ([2]; 100 uM) | inhibition at 100 µM ([2]; 100 uM) | ACE2 Exopeptidase Activity: Percent Activity ([2]; 250 uM) | inhibition at 250 µM ([2]; 250 uM) | ACE2 Exopeptidase Activity: Percent Activity ([2]; 500 uM) | inhibition at 500 µM ([2]; 500 uM) | also measured |
| --- | --- | --- | --- | --- | --- | --- | --- | --- | --- | --- | --- | --- | --- | --- | --- |
| Nc1c(Br)cc(Br)cc1CN[C@H]1CC[C@H](O)CC1 [AMB, 4-[(2-amino-3,5-dibromophenyl)methylamino]cyclohexan-1-ol; hydrochloride] | 148.7% | -48.7% | 152.3% | -52.3% | 159.9% | -59.9% | 157.1% | -57.1% | 156.9% | -56.9% | 144.7% | -44.7% | 141.0% | -41% | Conc. at Max. % Viability (A549 cells): 2.34 µM; Conc. at Min. % Viability (A549 cells): 300 µM; Max. Viability (A549 cells): 100%; Min. Viability (A549 cells): 0.14%; CC50 (A549 cells; read-out: Cytotoxicity CC50, 72 hours, hydrochloride): 137 µM; Concentration at Maximum % Inhibition ([1]; A549-ACE2, NLRV): 300 µM; Maximum Inhibition ([1]; A549-ACE2, NLRV): 99.73%; IC50 ([1]; Severe acute respiratory syndrome coronavirus 2, A549, 72 h): 47 µM; IC50 ([1]; hydrochloride): 47.3 µM; change of ACE2 expression (ACE2): no changes; CC50 at 72 h (in vitro): 137 µM; effect on exopeptidase activity of rhACE2 [2]: did not inhibit |
| CN(Cc1cc(Br)cc(Br)c1N)C1CCCCC1 [BHH, Bromhexine hydrochloride] | 111.3% | -11.3% | 114.7% | -14.7% | 104.6% | -4.6% | 2.7% | 97.3% | −6.2% | 106% | −6.7% | 107% | −6.6% | 107% | change of ACE2 expression (ACE2; hydrochloride): no changes; change of ACE2 expression (ACE2; listed as BBH, hydrochloride): does not affect; IC50 ([2]; read-out: IC50, exopeptidase function of ACE2): 26 µM; effect on exopeptidase activity of rhACE2 ([2]; hydrochloride): completely inhibited |
